Holding throughout (type): cell-based
What all share (details): Hepatitis C virus

The subject of one test is GT2a-JFH replicon. The experiment in a line: Stable replicon assay, comparison to daclatasvir, GT2a-JFH. The text has this: (§1) The plasmid pSG-hRlucNeo-JFH1 was generated from pSG-Neo-JFH1 (Kato et al. 2003, Gastroentrology 125:1808-1817). A fragment containing the JFH-1 5′ NTR-hRluc-Neo gene and two unique restriction sites (AgeI and PmeI) was synthesized (Integrated DNA Technologies, Coralville, Iowa). The resulting plasmid was digested with AgeI and PmeI and the excised fragment (5′NTR-hRluc-Neo) was ligated into pSG-Neo-JFH1 digested with the same enzymes to generate pSG-hRlucNeo-JFH1. To allow expression of heterologous NS5A sequences, an NS5A shuttle vector was generated from pSG-Neo-JFH1, in which the entire coding sequence of NS5A plus the first eight codons of NS5B were replaced with an AfeI restriction site. This was done by Infusion cloning (Clontech, Mountain View, Calif.) from two PCR products that were generated using pSG-Neo-JFH1 as a template and the following primer pairs: […]
(§2) Stable HCV replicon cell lines were grown in complete media (Dulbecco's modified Eagle medium [DMEM], 2 mM L-glutamine, 0.1 mM essential amino acids, 1 mM sodium pyruvate, 10% fetal bovine serum) with the addition 500 μg/ml […] (G418). […] For stable and transient replicon assays, luciferase activity of compound-treated cells was measured relative to DMSO-treated cells after 72 h incubation using RENILLA-GLO™ Luciferase Assay (Promega). […]

The test system of another test is GT2a-2b-J8 replicon. The experiment in a line: Stable replicon assay, comparison to daclatasvir, GT2a-2b-J8.
Source text: as §1, §2
In general terms: A replicon is a self-replicating genome or part of one, used to study replication in cells.

The test system of another test is GT2a-5a-SA13 replicon. The experiment in a line: Stable replicon assay, comparison to daclatasvir, GT2a-5a-SA13.
Source text: as §1, §2

In test [1] the test system is HCV genotype 1a replicon, NS5A K24G. The experiment in a line: Transient replication assay, GT1a NS5A K24G.
Test [2] relates to HCV genotype 1a replicon, NS5A L31M. The experiment in a line: Transient replication assay, GT1a NS5A L31M.
In test [3] the test system is HCV genotype 1a replicon, NS5A M28T. The experiment in a line: Transient replication assay, GT1a NS5A M28T.
The subject of test [4] is HCV genotype 1a replicon, NS5A Q30E. The experiment in a line: Transient replication assay, GT1a NS5A Q30E.
Test [5] deals with HCV genotype 1a replicon, NS5A Y93C. The experiment in a line: Transient replication assay, GT1a NS5A Y93C.
The subject of test [6] is HCV genotype 1a replicon, NS5A Y93N. The experiment in a line: Transient replication assay, GT1a NS5A Y93N.
For test [7], the system named is HCV genotype 1a replicon, NS5A M28V Q30R. The experiment in a line: Transient replication assay, GT1a NS5A M28V Q30R.

`COC(=O)N[C@H](C(=O)N1C[C@]2(CCCOC2)C[C@H]1c1ncc(-c2ccc(-c3ccc4c(ccc5nc([C@@H]6C[C@@H]7CCC[C@@H]7N6C(=O)[C@@H](NC(=O)OC)C(C)C)[nH]c54)c3)cc2)[nH]1)C(C)C` [Compound 16]: the EC50 (in general, the concentration that produces a half-maximal response) worked out at 4 pM in the test on GT2a-JFH replicon; 9.9 nM with GT2a-2b-J8 replicon; 5 pM with GT2a-5a-SA13 replicon; 0.0021 nM in test [1]; 0.0106 nM in [2]; 0.049 nM in [3]. Further, the EC50 was 0.74 nM in [4], 0.22 nM in [5], 19 nM in test [6] and 0.16 nM in test [7].

Consider `COC(=O)N[C@H](C(=O)N1CCC[C@H]1c1nc(-c2ccc(-c3ccc(-c4c[nH]c([C@@H]5CCCN5C(=O)[C@@H](NC(=O)OC)C(C)C)n4)cc3)cc2)c[nH]1)C(C)C` [Daclatasvir, reference compound], for which the EC50 in the test on GT2a-JFH replicon stood at 8 pM; in the test on GT2a-2b-J8 replicon, 20 nM; in the test with GT2a-5a-SA13 replicon, 9 pM; in test [1] it was 0.02 nM; in test [2], 0.67 nM; in [3], 3.4 nM. Further, the EC50 in test [4] is 81.5 nM; in test [5], 3.2 nM; in [6], 119 nM; in [7], 1.2 nM.

These data come from patent US10407445B2, “Hepatitis C virus inhibitors” (ENANTA PHARMACEUTICALS, INC., priority 2013, dated 2019).
